2 compounds from PubChem BioAssay (NCI) can be followed below.

What all share (assay): NCI tumour cell line growth inhibition, 48 h
Experiment [1] deals with P388/ADR leukemia.
For experiment [2], the system named is LXFL 529 NSCLC.
Experiment [3] relates to DLD-1 colon.
The test system of experiment [4] is SN12K1 renal.
For experiment [5], the system named is SNB-78 CNS.
Experiment [6] concerns DMS 273 small cell lung.
Experiment [7] has as its system DMS 114 small cell lung.
In experiment [8] the test system is XF 498 CNS.
Experiment [9] has as its system P388 leukemia.
The test system of experiment [10] is M19-MEL melanoma.
In experiment [11] the test system is MDA-N.

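1) Cells in 96-well plates. 2) Compound, 48 h, 5 concentrations. 3) Linear interpolation between surrounding doses. 4) Unreached endpoint = highest concentration. The concentration for full growth arrest is given as TGI.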

Consider `Cn1sc2ccccc2c1=S`, for which the TGI stood at 2.86 µM in [1]; 27.1 µM in experiment [2]; 10.1 µM in [3]; 7.41 µM in experiment [4]; 31 µM in [5]; 17.6 µM in experiment [6]. Also, the TGI in [7] was found to be 7.46 µM; in experiment [8] it was 25.1 µM; in [9] it was 1.67 µM; in experiment [10], 16.2 µM.
As for `CCCCCC/C=C1\CCC(CN(C)C)C1=O` (stereo not drawn), the TGI in experiment [2] is 3.8 µM; in [3] it was 6.18 µM; in experiment [4] it was 4.35 µM; in experiment [6], 11.4 µM; in [11], 17.1 µM; in experiment [7], 8.99 µM. The TGI was found to be 7.49 µM in [8] and 7.25 µM in experiment [10].
